Target: T1, human EGF-receptor kinase (Homo sapiens, UniProt P00533)
T1 construct: GST; made in house; host or cells: Sf9 insect cells (Baculovirus)
Test: Inhibition of human EGF-receptor kinase (cytoplasmatic tyrosine kinase domain, GST fusion protein, pEY substrate, ELISA readout)
Type: biochemical
Conditions: cytoplasmatic tyrosine kinase domain (Met 664 to Ala 1186) as GST fusion protein; poly(EY)/bio-pEY substrate; 30 minutes at ambient temperature
Experimental: The inhibition of human EGF-receptor kinase was determined using the cytoplasmatic tyrosine kinase domain (methionine 664 to alanine 1186, based on the sequence published in Nature 309 (1984), 418). To do this, the protein was expressed in Sf9 insect cells as a GST fusion protein using the Baculovirus expression system.
The enzyme activity was measured in the presence or absence of the test compounds in serial dilutions. The polymer pEY (4:1) produced by SIGMA was used as the substrate. Biotinylated pEY (bio-pEY) was added as the tracer substrate. Every 100 μl of reaction solution contained 10 μl of the inhibitor in 50% DMSO, 20 μl of the substrate solution (200 mM HEPES pH 7.4, 50 mM magnesium acetate, 2.5 mg/ml of poly(EY), 5 μg/ml of bio-pEY) and 20 μl of enzyme preparation. The enzyme reaction was started by the addition of 50 μl of a 100 μM ATP solution in 10 mM magnesium chloride. The dilution of the enzyme preparation was adjusted so that the incorporation of phosphate into the bio-pEY was linear in terms of time and quantity of enzyme. […]
The enzyme assays were carried out at ambient temperature over a period of 30 minutes and were ended by the addition of 50 μl of a stopping solution (250 mM EDTA in 20 mM HEPES pH 7.4). […] The extinction was measured at OD450 nm with an ELISA reader. All data points were measured three times. […]

T1 sequence (P00533 688-1210): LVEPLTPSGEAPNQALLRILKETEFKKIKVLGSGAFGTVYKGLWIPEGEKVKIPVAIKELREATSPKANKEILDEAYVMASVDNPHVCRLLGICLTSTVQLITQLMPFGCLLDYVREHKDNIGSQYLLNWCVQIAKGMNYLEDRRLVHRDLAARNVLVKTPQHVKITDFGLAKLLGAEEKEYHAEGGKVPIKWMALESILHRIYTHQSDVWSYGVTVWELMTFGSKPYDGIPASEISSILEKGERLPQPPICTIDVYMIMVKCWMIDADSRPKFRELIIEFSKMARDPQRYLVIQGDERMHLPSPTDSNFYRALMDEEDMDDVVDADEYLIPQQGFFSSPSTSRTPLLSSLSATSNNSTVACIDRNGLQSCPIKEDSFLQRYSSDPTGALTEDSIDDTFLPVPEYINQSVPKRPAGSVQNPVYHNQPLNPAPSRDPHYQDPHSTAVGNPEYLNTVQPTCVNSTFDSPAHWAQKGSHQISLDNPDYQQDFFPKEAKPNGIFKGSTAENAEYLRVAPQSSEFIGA

IC50: 1.5 nM
Structure (SMILES): O=C(/C=C/CN1CCCOCC1)Nc1cc2c(Nc3ccc(F)c(Cl)c3)ncnc2cc1O[C@H]1CCOC1 [Example 1, 4-[(3-chloro-4-fluoro-phenyl)amino]-6-{[4-(homomorpholin-4-yl)-1-oxo-2-buten-1-yl]amino}-7-[(S)-(tetrahydrofuran-3-yl)oxy]-quinazoline]
